Consider eight compounds from patent publication US9963684B2 (priority 2014, dated 2018).

SMILES strings stand for the structures. “And” between values parts separate entries of the source, which are not always exact repeats. Equal values may be shown once. Read-outs that look alike come from different tables or passages of the source.

The subject of the test is formaldehyde dehydrogenase. The class given is biochemical, Burkholderia multivorans.
The mark [1] stands for this setting: metal ion 1 mM in enzyme reaction solution.
Setting [2] is: metal ion 5 mM in enzyme reaction solution.

`[Ba+2].[Cl-].[Cl-]` [BaCl2]: the “Relative activity (%)” value runs as follows: under setting [1], 98.55%; under setting [2], 115.1%.
Regarding `[Ca+2].[Cl-].[Cl-]` [CaCl2], the “Relative activity (%)” value stood at 50.67% under setting [1] and 75.96% under setting [2].
With `[Cl-].[Cl-].[Co+2]` [CoCl2], the “Relative activity (%)” value is 58.39% and 72.60%.
As for `O=S(=O)([O-])[O-].[Cu+2]` [CuSO4], the “Relative activity (%)” value turned out to be 124.3% under setting [1] and 91.30% under setting [2].
Take `[Cl-].[K+]` [KCl]: the “Relative activity (%)” value runs as follows: under setting [1], 104.0%; under setting [2], 94.49%.
Regarding `[Cl-].[Cl-].[Mg+2]` [MgCl2], the “enzyme activity in the presence of metal ion versus without it” value (5 frill Mg^2+) is given as 2.7 times. Moreover, the “Relative activity (%)” value runs as follows: under setting [1], 147.8%; under setting [2], 269.6%.
As to `[Cl][Mn][Cl]` [MnCl2], the “Relative activity (%)” value by setting is: under setting [1], 62.32%; under setting [2], 111.6%.
The like results for `[Cl-].[Cl-].[Zn+2]` [ZnCl2] were, in that order, 63.99% and 192.2%.
